Legend:
HTSE cells [1] = assay: LDH release cytotoxicity assay in HTSE cells; type: cell-based, Golden Syrian hamsters; details: for cytotoxicity as determined by LDH release / LDH release: HTSE cells; for cytotoxicity as determined by LDH release: techniques of examples 1-4; for LDH release: 10^-5 M, 30 min treatment; for LDH release across concentration groups: varying concentrations, 30 min, HTSE cells (FIG. 2)
Method: (§1) The effects of PLA or PLL on cell toxicity were also examined. The possible cytotoxicity of these polypeptides was assessed by four different methods: (a) LDH release, (b) ^51Cr release, (c) cell exfoliation, and (d) light microscopy. Cultures were treated with either PLA or PLL for 30 min, and then assayed as follows. An LDH assay was conducted using an LDH assay kit (LD-L10) (Sigma Chemical Co., St. Louis, Mo.), according to the manufacturer's directions. A 51Cr release assay was carried out as described in Kim et al., 1987, Proc. Natl. Acad. Sci. USA 84:9304-9308. The degree of exfoliation was measured by counting the floating cells at the end of the 24 hr post-treatment period. Floating cells were collected as a pellet from spent media by centrifugation at 200×g for 5 min at 4° C. The resulting cell pellet was suspended in a solution containing 0.05% Trypsin and 0.02% EDTA, and the suspension was incubated at 37° C. for 10 min before dissociated cells were counted using a hemacytometer.

[2] = system: hamster tracheal surface epithelial (HTSE) cells; assay: Mucin release from cultured airway goblet cells (3H-glucosamine-labelled HTSE cell culture); type: cell-based, Golden Syrian hamsters; details: for effect on mucin release/secretion (dose dependence): varying concentrations; for effect on mucin release/secretion (dose dependence) / "inhibition" of released mucins: 30 min chase, HTSE cells; for inhibitory effect on mucin release after LMWH pretreatment: 10^-5 M peptide, pretreatment with 2×10^-5 M LMWH for 5 min; for "inhibition" of released mucins / effect on mucin release, column-purified versus not column purified: 10^-5 M; for effect on mucin release, column-purified versus not column purified: unacetylated peptide
Method: The effects of poly-L-arginine (PLA) and poly-L-lysine (PLL) on mucin release from cultured airway goblet cells were evaluated. Tracheas obtained from 7-8 week old male Golden Syrian hamsters (Harlan Sprague Dawley, Indianapolis, Ind.) were used to establish a hamster tracheal surface epithelial, (HTSE) cell culture. HTSE cells were harvested and cultured on a thick collagen gel as described in Kim et al., 1989, Exp. Lung Res. 15: 299-314. Mucins were metabolically radiolabeled by incubating confluent cultures (24 well plate, 5×10^5 cells/well) with 0.2 ml/well of a “complete” medium containing 10 μCi/ml of ^3H-glucosamine for 24 hours as described in Kim et al., 1989, Am. J. Resp. Cell Mol. Biol. 1: 137-143. The “complete” medium was prepared by supplementing a mixture of Medium 199/Dulbecco's modified Eagle's medium (DME) (1:1) with insulin (5 μg/ml), transferrin (5 μg/ml), epidermal growth factor (12.5 ng/ml), 0.1 μM hydrocortisone, 0.01 μM sodium selenite, 0.1 μM retinoic acid, and 5% fetal bovine serum (Hyclone, Logan, Utah). At the end of the 24 hour incubation period, the spent media (the pretreatment sample) were collected, and the labeled cultures were washed twice with Dulbecco's PBS without Ca^++ and Mg^++ and then chased for 30 min in the presence of varying concentrations of poly-L-arginine (PLA, average MW 8,900) or poly-L-lysine (PLL, average MW 9,600). The chased media are referred to as the treatment samples. PLA and PLL were prepared in phosphate buffered saline (PBS), and the final pH's of these solutions were adjusted to be between 7.0 and 7.4. […] J. Resp. Cell Mol. Biol. 1: 137-143. At the end of the chase period, floating cells and cell debris were removed from the treatment samples by centrifigation at 12,000×g for 5 min. Fifty μl of the treatment samples were used for lactate dehydrogenase (LDH) assay (as discussed in Example 2 below) and the remaining samples were stored at −80° C. until assayed for their ^3H-mucin contents. High molecular weight glycoconjugates that were excluded after Sepharose CL-4B (Phainacia, Upsaala, Sweden) gel-filtration column chromatography and that were resistant to hyaluronidase, were defined as mucins, as described in Kim et al., 1985, J. Biol. Chem. 260:4021:4027. Mucins were measured by column chromatography as described in Kim et al, 1987, Proc. Natl. Acad. Sci. USA 84:9304-9308.

HTSE cells [3] = assay: Cell exfoliation (floating cell count) in HTSE cultures; type: cell-based, Golden Syrian hamsters; details: 10^-5 M; 24 hr post-treatment period; control 1992±132
Method: as §1

HTSE cells [4] = assay: ATP-induced mucin release in HTSE cells; type: cell-based, Golden Syrian hamsters; details: 10^-5 M peptide with 2×10^-4 M ATP, 30 min chase
Method: The effects of poly-L-arginine (PLA) and poly-L-lysine (PLL) on mucin release from cultured airway goblet cells were evaluated. Tracheas obtained from 7-8 week old male Golden Syrian hamsters (Harlan Sprague Dawley, Indianapolis, Ind.) were used to establish a hamster tracheal surface epithelial, (HTSE) cell culture. HTSE cells were harvested and cultured on a thick collagen gel as described in Kim et al., 1989, Exp. Lung Res. 15: 299-314. Mucins were metabolically radiolabeled by incubating confluent cultures (24 well plate, 5×10^5 cells/well) with 0.2 ml/well of a “complete” medium containing 10 μCi/ml of ^3H-glucosamine for 24 hours as described in Kim et al., 1989, Am. J. Resp. Cell Mol. Biol. 1: 137-143. The “complete” medium was prepared by supplementing a mixture of Medium 199/Dulbecco's modified Eagle's medium (DME) (1:1) with insulin (5 μg/ml), transferrin (5 μg/ml), epidermal growth factor (12.5 ng/ml), 0.1 μM hydrocortisone, 0.01 μM sodium selenite, 0.1 μM retinoic acid, and 5% fetal bovine serum (Hyclone, Logan, Utah). […] Mucins were measured by column chromatography as described in Kim et al, 1987, Proc. Natl. Acad. Sci. USA 84:9304-9308. […]

HTSE cells [5] = assay: Light microscopy of treated HTSE cells; type: cell-based, Golden Syrian hamsters; details: end of 30 min treatment or end of 24 hr post-treatment period
Method: as §1

HTSE cells [6] = assay: 51Cr release assay in HTSE cells; type: cell-based, Golden Syrian hamsters; details: 10^-5 M, 30 min; control 100±4%
Method: as §1

[7] = system: SO2-induced goblet cell metaplasia; assay: SO2-induced goblet cell metaplasia in rats (inhaled peptide, PAS staining); type: in vivo, Sprague-Dawley rats; details: rat, inhaled 100 μl of 50, 500 or 5,000 μM once a day for five days, 150 ppm SO2
Method: To examine the effects of PLL or PLA in vivo, the effect of PLL or PLA on goblet cell metaplasia in rats was determined. Exposure of rats to SO2 was carried out essentially according to the method described in Kase et al, 1982, Arzneim-Forsch Drug Research 32:368-373. Eight to ten week-old male Sprague-Dawley rats were placed in a polyacrylic chamber (100 cm×60 cm×25 cm) and exposed to SO2 for three weeks, three hours per day, five days per week. The SO2 gas was generated from a solution containing 10% (W/V) sodium metabisulfite by aerosolization using an ultrasonic humidifier (Samsung Electronic Co., Korea). Concentrations of the generated SO2 gas were monitored before and after the exposure using a SO2 detector kit (Gastec Co., Japan), which has a detection range from 20 to 3600 ppm of SO2. The concentration of the SO2 gas inside the chamber was maintained at 150 ppm during all of the exposure periods.
PLA (average MW 10,800) was prepared in phosphate buffered saline (PBS), pH 7.2, in various concentrations. Following treatment of the animals with SO2 for 2 weeks, animals were treated with both S and PLA during a third week. A 100 μl aliquot of one of the PLA solutions was administered to each rat using an inhaler (PAPI master, Stamberg, Germany), once a day for five consecutive days, during the period immediately following the two week SO2 treatment period. […]

## poly-L-arginine [Low molecular weight PLA (14 residues)]
HTSE cells [1]
  cytotoxicity as determined by LDH release: without any evidence of cytotoxicity
[2]
  effect on mucin release/secretion (dose dependence): inhibited mucin secretion in a dose dependent fashion

## poly-L-arginine [Low molecular weight PLA (20 residues)]
HTSE cells [1]
  cytotoxicity as determined by LDH release: without any evidence of cytotoxicity
[2]
  effect on mucin release/secretion (dose dependence): inhibited mucin secretion in a dose dependent fashion

## poly-L-lysine [PLL]
HTSE cells [3]
  number of floating cells/well: 1920±70 cells/well
HTSE cells [4]
  stimulatory effect of ATP on mucin release: completely blocked
HTSE cells [5]
  microscopic difference between control and treated cells: no apparent microscopic difference
HTSE cells [1]
  LDH release: no significant increases
  LDH release across concentration groups: no significant difference
HTSE cells [6]
  51Cr release: 103±10%
[2]
  inhibitory effect on mucin release after LMWH pretreatment: completely blocked
  "inhibition" of released mucins: 87%
  effect on mucin release, column-purified versus not column purified: no significant difference
  effect on mucin release/secretion (dose dependence): dose-dependent decrease

## poly-L-arginine [PLA]
HTSE cells [3]
  number of floating cells/well: 2154±84 cells/well
HTSE cells [4]
  stimulatory effect of ATP on mucin release: completely blocked
HTSE cells [5]
  microscopic difference between control and treated cells: no apparent microscopic difference
HTSE cells [1]
  LDH release: no significant increases
  LDH release across concentration groups: no significant difference
HTSE cells [6]
  51Cr release: 102±11%
[2]
  inhibitory effect on mucin release after LMWH pretreatment: completely blocked
  "inhibition" of released mucins: 85%
  effect on mucin release, column-purified versus not column purified: no significant difference
  effect on mucin release/secretion (dose dependence): dose-dependent decrease

## poly-L-arginine [PLA (5 residues)]
[2]
  effect on mucin release/secretion (dose dependence): did not show any significant inhibition

## poly-L-lysine [Low molecular weight PLL (20 residues)]
HTSE cells [1]
  cytotoxicity as determined by LDH release: without any evidence of cytotoxicity
[2]
  effect on mucin release/secretion (dose dependence): inhibited mucin secretion in a dose dependent fashion

## poly-L-lysine [Low molecular weight PLL (5 residues)]
[2]
  effect on mucin release/secretion (dose dependence): did not show any significant inhibition

## poly-L-lysine [High molecular weight PLL]
HTSE cells [1]
  cytotoxicity as determined by LDH release: associated with cytotoxicity
[2]
  effect on mucin release/secretion (dose dependence): inhibited mucin secretion in a dose-dependent fashion

## poly-L-arginine [PLA (average MW 10,800)]
[7]
  goblet cell metaplasia induced by SO2: prevented by PLA in a dose-dependent fashion

## poly-L-lysine [Low molecular weight PLL (14 residues)]
HTSE cells [1]
  cytotoxicity as determined by LDH release: without any evidence of cytotoxicity
[2]
  effect on mucin release/secretion (dose dependence): inhibited mucin secretion in a dose dependent fashion

## poly-L-arginine [High molecular weight PLA]
HTSE cells [1]
  cytotoxicity as determined by LDH release: associated with cytotoxicity
[2]
  effect on mucin release/secretion (dose dependence): inhibited mucin secretion in a dose-dependent fashion

— patent publication US20010033827A1, “Inhibition of mucin release from airway goblet cells by polycationic peptides” (priority 1999, published 2001)
